# What was measured:
# B16F10 melanoma cells = details: wild type mice with PVA sponges; HDC 1,500 μg/mouse i.p. thrice weekly for 2 weeks; foci counted 3 weeks after B16F10 injection; p<0.0001, n=10
# Procedure: (§1) To mimic the wounding inflammation associated with surgery, sterile polyvinyl alcohol (PVA) sponges (1 cm^2 with a thickness of 2 mm) were implanted subcutaneously to wild type C57BL/6 and Nox2−/− mice (mouse strain B6.129S6-Cybbtm1Din, obtained from the Jackson Laboratory) aiming to induce tissue inflammation.
# (§2) Mice received intraperitoneal injections of the NOX2-inhibitor HDC (1,500 μg/mouse) thrice weekly for 2 weeks starting two days before implantation of sponges.
# [1] = system: intracellular reactive oxygen species in CD11b+LyC6+ inflammatory monocytes; details: sponge-bearing wild type mice; HDC 1,500 μg/mouse i.p. thrice weekly; DCFDA, one week after implantation
# Procedure: The values were normalized against those of unwounded control mice on each collection day.
# as §1, §2
# One week after implantation of sponges, before injection of melanoma cells, peripheral blood was drawn from vena saphena of wild type and Nox2−/− mice. Blood cells were stained for CD11b and Ly6C using fluorochrome-conjugated antibodies and with DCFDA to detect content of intracellular reactive oxygen species. The content of CD11b+LyC6+inflammatory monocytes in blood and their levels of intracellular radicals was determined using flow cytometry.
smiles,measurement,setting,value
"Cl.Cl.NCCc1c[nH]cn1 [HDC, histamine dihydrochloride]",formation of metastases (metastatic foci in lungs) during surgical/wounding-induced inflammation,B16F10 melanoma cells,significantly reduced
same,ROS levels in blood inflammatory monocytes,[1],trend towards reduced ROS levels

# — patent US20230241029A1, “METHODS OF REDUCING POST-SURGICAL METASTASIS” (priority 2018, published 2023)
